Test system: estrogen responsive promoter (four repeats of estrogen response element, ERE) in MCF-7/S0.5 reporter cells
Experiment: Estrogen-responsive NanoLuc luciferase reporter assay in transfected MCF-7/S0.5 cells, luminescence in culture medium without cell lysis
Format: cell-based, human
Details: MCF-7/S0.5 reporter cells exposed for 24 h to 0.03 to 109 ng/L
Procedure: MCF-7/S0.5 human breast cancer cells (Sigma-Aldrich, catalogue no. SCC100) were cultured in medium supplemented with 1% charcoal-stripped fetal bovine serum (FBS) for 48 hours prior to seeding. The cells were then seeded in medium supplemented with 1% FBS and incubated for 48 hours. […]
The luminescence was measured in the cell culture medium by a Spark® Multimode Microplate Reader (Tecan) from three experimental groups: a) negative control with only cell culture medium but no cells, b) cell culture medium and non-transfected cells, and c) cell cultured medium and cells transfected with the reporter plasmid mentioned above (“reporter cells”).
The MCF-7/S0.5 cells transfected with the reporter plasmid where the expression of NanoLuc® luciferase with an N-terminal secretion signal was under the regulation of an estrogen responsive promoter produced in Example 1 were exposed for 24 h to increasing concentrations of 17β-estradiol, ranging from 0.03 to 109 ng/L. The luminescence was then analyzed in the cell culture medium, without cell lysis.

C[C@]12CC[C@@H]3c4ccc(O)cc4CC[C@H]3[C@@H]1CC[C@@H]2O [E2, 17β-estradiol]
amount of NanoLuc luciferase secreted into the cell culture medium (FIG. 6): increasing with increasing concentration of E2
effect concentration 20% (EC20) (luminescence of secreted NanoLuc luciferase in cell culture medium): 0.00019 ng/mL

From US20260219194A1, “BIOSENSOR FOR WATER ANALYSIS” (BIOCELL ANALYTICA UPPSALA AB, priority 2023, published 2026)
